The structures appear in SMILES notation.

Consider one compound from patent publication US9562053B2, “Benzo-fused heterocyclic derivatives useful as agonists of GPR120” (Janssen Pharmaceutica NV, priority 2013, dated 2017).

The assay concerns the target T1, Human GPR120 short form (Homo sapiens, UniProt Q5NUL3).
T1 construct: expressed in transfected cells
T1 sequence (Q5NUL3 1-361): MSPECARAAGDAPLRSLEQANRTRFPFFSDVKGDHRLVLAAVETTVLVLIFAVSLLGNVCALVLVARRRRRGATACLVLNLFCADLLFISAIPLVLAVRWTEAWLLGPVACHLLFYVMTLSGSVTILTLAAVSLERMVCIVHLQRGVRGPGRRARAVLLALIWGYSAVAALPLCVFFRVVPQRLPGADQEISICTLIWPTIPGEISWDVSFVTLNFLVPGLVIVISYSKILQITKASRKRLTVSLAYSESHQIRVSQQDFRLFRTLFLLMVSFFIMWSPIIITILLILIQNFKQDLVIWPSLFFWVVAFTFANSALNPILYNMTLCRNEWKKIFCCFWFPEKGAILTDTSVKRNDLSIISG
As to the kind of experiment: Human GPR120 in Calcium Flux Assay, Procedure Calcium B (4200 cells/well). It is filed as cell-based. An excerpt: This in vitro assay serves to assess test compound agonist activity against the short splice variant (SVS with Accession number NM_001195755.1 confirmed by sequencing data) of the GPR120 receptor. The Human Short splice variant #2 (NM_001195755.1) is missing an in-frame coding exon compared to variant 1 (the Human Long splice variant NM_181745.3), resulting in a shorter isoform (GPR120-S) lacking a 16 aa protein segment compared to isoform GPR120-L. The assay platform utilizes HEK-293 cells stably transfected to express the Human GPR120 short form. These cells are first loaded with the Ca^+2 sensitive dye, Fluo-4 NW. Upon stimulation, intracellular released Ca^+2 can bind to the dye and alter its fluorescence intensity. This increase in fluorescence signal, and thus the flux in intracellular [Ca^+2], is detected and quantitated by fluorescence imaging using a FLIPR reader. The effect of the agonist is measured as a function of concentration and used to calculate an EC50 based upon a response curve.
In this procedure 4200 cells/well were employed.
A Human GPR120 clone (Genbank accession number NM_001195755.1) was placed into the pcDNA3.1 mammalian expression vector carrying the neomycin resistance gene. A stable mammalian cell was generated by placing the above clone into a HEK293 background. Clonal cells responding to long chain fatty acids had expression levels of GPR120 confirmed by RT-qPCR. Human HEK-GPR120 cells were cultured in Dulbecco's Modified Eagle's Medium (DMEM)/F12 medium supplemented with 10% fetal bovine serum (FBS), 1% L-Glutamine and 1% penicillin/streptomycin and 0.5 mg/ml G-418. Cells were split 2 times a week to keep the cells in the log-phase growth.
In preparation for the assay, HEK cells stably transfected with Human GPR120 (2.5K cells per well in 25 uL growth medium) were seeded into 384-well plates and then incubated overnight (37° C., 5% CO2). The next day, the media was changed to 20 μl assay buffer and the cell starved for 1 h at 37° C. The dye loading solution (2× dye) was prepared using 10 ml assay buffer, 100 μl of 250 mM probenecid, 1 bottle of Component A, and 20 μl of dye in DMSO. Twenty μl of the 2× dye loading buffer was then added to each well. The plates were incubated at 37° C. for 30 min, then at room temperature for an additional 15 minutes, before performing the assay on FLIPR.
Test compounds were prepared in assay buffer (2 μl of test compound+198 μl assay buffer, final DMSO in assay plate is 0.2%) at the desired concentration, more particularly at 100 μM, 50 μM, 25 μM, 12.5 μM, 6.25 μM, 3.125 μM, 1.562 μM, 0.781 μM, 0.391 μM, 0.195 μM, 0.098 μM, 0.049 μM, 0.024 μM and 0.012 μM.
The assay was performed on a FLIPR plate reader using the following parameters. Baseline was read for 10 seconds at 1 sec intervals. The program was set to transfer 10 μL of ligand from compound plate to cell plate after baseline reading. Aspiration was executed at: 10 μl/sec speed, 4.6 μl height; Dispensing was executed at: 30 μl/sec speed, 45 μl height. After compound addition, each well was read for 300 sec, with measurements collected at 1 sec intervals.
The kinetic data from the FLIPR was based upon a 5 minute window for data collection. The fluorescence of each sample well was used for individual calculations of a normalized RFU value, which was defined as maximum response minus the minimum response. The normalized fluorescence reading (RFU) was calculated as follows: RFU=Fmax−Fmin
The data were fitted to a sigmoidal dose-response curve with a variable Hill slope (<2) using nonlinear regression with GraphPad Prism 5.0 to calculate the EC50 values. The Fitting Equation was: Y=Bottom+(Top−Bottom)/(1+10^((LogEC50−X)*HillSlope)), where X is the log of the concentration and Y is the response.
A general note: Calcium flux is commonly read through the fluorescence of an indicator in the cells.

For `Cc1cc2cc(OC(F)(F)F)cc(COc3ccc(CCC(=O)O)c(C)c3C)c2o1` [Compound 36, 3-(2,3-Dimethyl-4-{[2-methyl-5-(trifluoromethoxy)-1-benzofuran-7-yl]methoxy}phenyl)propanoic acid], the EC50 is 0.012 µM.

One may read the EC50 as the concentration needed to bring the measured effect to its halfway point.
